Measurements published in ChEMBL document CHEMBL1152302, “Dihydropyrrole[2,3-d]pyridine derivatives as novel corticotropin-releasing factor-1 antagonists: mapping of the receptor binding pocket by in silico docking studies” (J Med Chem, 2008).

The compounds below were run against T1, Corticotropin-releasing factor receptor 1 (Homo sapiens, UniProt P34998) (assay: Displacement of [125I]sauvagine from human recombinant CRF1 receptor expressed in CHO cells by SPA).
T1 sequence (P34998 whole entry): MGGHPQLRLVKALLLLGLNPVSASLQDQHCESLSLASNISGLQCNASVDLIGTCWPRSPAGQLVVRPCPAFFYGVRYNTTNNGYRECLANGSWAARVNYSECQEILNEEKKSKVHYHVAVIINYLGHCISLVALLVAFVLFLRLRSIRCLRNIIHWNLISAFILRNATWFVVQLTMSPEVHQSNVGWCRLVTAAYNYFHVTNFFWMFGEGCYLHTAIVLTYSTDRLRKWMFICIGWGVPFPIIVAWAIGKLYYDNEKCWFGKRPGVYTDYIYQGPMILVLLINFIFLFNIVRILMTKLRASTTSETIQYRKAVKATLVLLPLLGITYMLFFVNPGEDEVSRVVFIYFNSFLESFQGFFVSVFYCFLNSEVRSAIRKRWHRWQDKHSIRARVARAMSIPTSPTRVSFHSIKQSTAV
Format: cell-based

Compound	IC50
Cc1cc(-n2ccc(-c3nccs3)n2)c2c(n1)N(c1ccc(C#N)cc1-c1cccs1)CC2	851 nM
COc1ccc(N2CCc3c(-n4ccc(-c5nccs5)n4)cc(C)nc32)c(OC)n1	214 nM
Cc1cc(-n2ccc(-c3nccs3)n2)c2c(n1)N(c1ccc(F)cc1[N+](=O)[O-])CC2	> 10000 nM
Cc1cc(-n2ccc(-c3nccs3)n2)c2c(n1)N(c1ccc(Cl)cc1[N+](=O)[O-])CC2	> 10000 nM
COc1ccc(N2CCc3c(-n4ccc(-c5nccs5)n4)cc(C)nc32)c([N+](=O)[O-])c1	> 10000 nM
Cc1cc(-n2ccc(-c3nccs3)n2)c2c(n1)N(c1ccc(S(C)(=O)=O)cc1S(C)(=O)=O)CC2	3890 nM
Cc1cc(-n2ccc(-c3nccs3)n2)c2c(n1)N(c1ccc([N+](=O)[O-])cc1C(F)(F)F)CC2	58.9 nM
Cc1cc(-n2ccc(-c3ccccn3)n2)c2c(n1)N(c1ccc(C#N)cc1Cl)CC2	363 nM
Cc1cc(-n2ccc(-c3ccccn3)n2)c2c(n1)N(c1ccc(C#N)cc1C)CC2	224 nM
Cc1cc(-n2ccc(-c3nccs3)n2)c2c(n1)N(c1cnc(N(C)C)cc1C)CC2	257 nM
Cc1cc(-n2ccc(-c3nccs3)n2)c2c(n1)N(c1ccc(O)cc1C)CC2	3470 nM
Cc1cc(-n2ccc(-c3nccs3)n2)c2nc(C(F)(F)F)n(-c3ccc(C(F)(F)F)cc3C(F)(F)F)c2n1	> 10000 nM
Cc1cc(-n2ccc(-c3nccs3)n2)c2c(n1)N(c1ccc(C#N)cc1C#N)CC2	7410 nM
COc1ccc(-n2ccc3c(-n4ccc(-c5nccs5)n4)cc(C)nc32)c(C)c1	427 nM
COc1ccc2c(c1)CCN2c1cc(-n2ccc(-c3nccs3)n2)cc(C)n1	> 10000 nM
Cc1cc(-n2ccc(-c3nccs3)n2)c2[nH]c(=O)n(-c3ccc(C(F)(F)F)cc3C(F)(F)F)c2n1	8320 nM
COc1ccc(N2CCc3c(-n4ccc(-c5nccs5)n4)cc(C)nc32)c(C)c1	53.7 nM
Cc1cc(-n2ccc(-c3nccs3)n2)c2c(n1)N(c1ccc(C(F)(F)F)cc1C(F)(F)F)CC2	27.5 nM

Compound	IC50
COc1ccc(N2CCc3c(-n4ccc(-c5nccs5)n4)cc(C)nc32)cc1	8710 nM
Cc1cc(-n2ccc(-c3nccs3)n2)c2c(n1)N(c1ccc(C#N)cc1F)CC2	2040 nM
Cc1cc(-n2ccc(-c3ccccn3)n2)c2c(n1)N(c1ccc(C#N)cc1C(F)(F)F)CC2	93.3 nM
CCc1cc(C#N)ccc1N1CCc2c(-n3ccc(-c4nccs4)n3)cc(C)nc21	126 nM
Cc1cc(-n2ccc(-c3nccs3)n2)c2c(n1)N(c1ccc(F)cc1C)CC2	162 nM
Cc1cc(-n2ccc(-n3cccn3)n2)c2c(n1)N(c1ccc(C#N)cc1C)CC2	316 nM
COc1ccc(N2CCc3c(-n4ccc(-c5nccs5)n4)cc(C)nc32)c(Cl)c1	56.2 nM
Cc1cc(-n2ccc(-n3cccn3)n2)c2c(n1)N(c1ccc(C#N)cc1C(F)(F)F)CC2	145 nM
COc1ccc(N2CCc3c(-n4ccc(-c5nccs5)n4)cc(C)nc32)c(OC)c1	174 nM
Cc1cc(-n2ccc(-c3nccs3)n2)c2nc(C)n(-c3ccc(C(F)(F)F)cc3C(F)(F)F)c2n1	> 10000 nM
COc1ccc(N2CCc3c(-n4ccc(-c5nccs5)n4)cc(C)nc32)c(C)n1	60.3 nM
Cc1cc(-n2ccc(-c3nccs3)n2)c2cnn(-c3ccc(C#N)cc3C)c2n1	2750 nM
Cc1cc(-n2ccc(-c3nccs3)n2)c2c(n1)N(c1ccc(C(F)(F)F)cc1C(F)(F)F)S(=O)(=O)C2	> 10000 nM
Cc1cc(-n2ccc(-n3cccn3)n2)c2c(n1)N(c1ccc(C#N)cc1Cl)CC2	115 nM
Cc1cc(-n2ccc(-c3nccs3)n2)c2c(n1)N(c1ccc(S(C)(=O)=O)cc1Cl)CC2	2340 nM
COc1ccc(N2CCc3c(-n4ccc(-c5nccs5)n4)cc(C)nc32)c(C(F)F)c1	34.7 nM
Cc1cc(-n2ccc(-c3nccs3)n2)c2c(n1)N(c1ccc(C#N)cc1Cl)CC2	229 nM
